Source: US20250228835A1, “PYRIDINYLOXYPYRIDINES AND RELATED COMPOUNDS AND THEIR USE IN TREATING MEDICAL CONDITIONS” (Rectify Pharmaceuticals, Inc., priority 2024, published 2025)

Assays:
Format in all cases: cell-based
[1] = biological target: T1, ABCA4 P1380L (Homo sapiens, UniProt P78363, P1380L); experiment: A4 correction dose-response assay: ABCA4 P1380L HiBit protein expression; settings: HEK-293 cells stably expressing HiBit-tagged ABCA4 P1380L; 24 h treatment; top concentration 30 μM; read-out: ABCA4 P1380L EC50, Emax
T1 construct: expressed in transfected cells
T1 sequence (P78363 whole entry P1380L): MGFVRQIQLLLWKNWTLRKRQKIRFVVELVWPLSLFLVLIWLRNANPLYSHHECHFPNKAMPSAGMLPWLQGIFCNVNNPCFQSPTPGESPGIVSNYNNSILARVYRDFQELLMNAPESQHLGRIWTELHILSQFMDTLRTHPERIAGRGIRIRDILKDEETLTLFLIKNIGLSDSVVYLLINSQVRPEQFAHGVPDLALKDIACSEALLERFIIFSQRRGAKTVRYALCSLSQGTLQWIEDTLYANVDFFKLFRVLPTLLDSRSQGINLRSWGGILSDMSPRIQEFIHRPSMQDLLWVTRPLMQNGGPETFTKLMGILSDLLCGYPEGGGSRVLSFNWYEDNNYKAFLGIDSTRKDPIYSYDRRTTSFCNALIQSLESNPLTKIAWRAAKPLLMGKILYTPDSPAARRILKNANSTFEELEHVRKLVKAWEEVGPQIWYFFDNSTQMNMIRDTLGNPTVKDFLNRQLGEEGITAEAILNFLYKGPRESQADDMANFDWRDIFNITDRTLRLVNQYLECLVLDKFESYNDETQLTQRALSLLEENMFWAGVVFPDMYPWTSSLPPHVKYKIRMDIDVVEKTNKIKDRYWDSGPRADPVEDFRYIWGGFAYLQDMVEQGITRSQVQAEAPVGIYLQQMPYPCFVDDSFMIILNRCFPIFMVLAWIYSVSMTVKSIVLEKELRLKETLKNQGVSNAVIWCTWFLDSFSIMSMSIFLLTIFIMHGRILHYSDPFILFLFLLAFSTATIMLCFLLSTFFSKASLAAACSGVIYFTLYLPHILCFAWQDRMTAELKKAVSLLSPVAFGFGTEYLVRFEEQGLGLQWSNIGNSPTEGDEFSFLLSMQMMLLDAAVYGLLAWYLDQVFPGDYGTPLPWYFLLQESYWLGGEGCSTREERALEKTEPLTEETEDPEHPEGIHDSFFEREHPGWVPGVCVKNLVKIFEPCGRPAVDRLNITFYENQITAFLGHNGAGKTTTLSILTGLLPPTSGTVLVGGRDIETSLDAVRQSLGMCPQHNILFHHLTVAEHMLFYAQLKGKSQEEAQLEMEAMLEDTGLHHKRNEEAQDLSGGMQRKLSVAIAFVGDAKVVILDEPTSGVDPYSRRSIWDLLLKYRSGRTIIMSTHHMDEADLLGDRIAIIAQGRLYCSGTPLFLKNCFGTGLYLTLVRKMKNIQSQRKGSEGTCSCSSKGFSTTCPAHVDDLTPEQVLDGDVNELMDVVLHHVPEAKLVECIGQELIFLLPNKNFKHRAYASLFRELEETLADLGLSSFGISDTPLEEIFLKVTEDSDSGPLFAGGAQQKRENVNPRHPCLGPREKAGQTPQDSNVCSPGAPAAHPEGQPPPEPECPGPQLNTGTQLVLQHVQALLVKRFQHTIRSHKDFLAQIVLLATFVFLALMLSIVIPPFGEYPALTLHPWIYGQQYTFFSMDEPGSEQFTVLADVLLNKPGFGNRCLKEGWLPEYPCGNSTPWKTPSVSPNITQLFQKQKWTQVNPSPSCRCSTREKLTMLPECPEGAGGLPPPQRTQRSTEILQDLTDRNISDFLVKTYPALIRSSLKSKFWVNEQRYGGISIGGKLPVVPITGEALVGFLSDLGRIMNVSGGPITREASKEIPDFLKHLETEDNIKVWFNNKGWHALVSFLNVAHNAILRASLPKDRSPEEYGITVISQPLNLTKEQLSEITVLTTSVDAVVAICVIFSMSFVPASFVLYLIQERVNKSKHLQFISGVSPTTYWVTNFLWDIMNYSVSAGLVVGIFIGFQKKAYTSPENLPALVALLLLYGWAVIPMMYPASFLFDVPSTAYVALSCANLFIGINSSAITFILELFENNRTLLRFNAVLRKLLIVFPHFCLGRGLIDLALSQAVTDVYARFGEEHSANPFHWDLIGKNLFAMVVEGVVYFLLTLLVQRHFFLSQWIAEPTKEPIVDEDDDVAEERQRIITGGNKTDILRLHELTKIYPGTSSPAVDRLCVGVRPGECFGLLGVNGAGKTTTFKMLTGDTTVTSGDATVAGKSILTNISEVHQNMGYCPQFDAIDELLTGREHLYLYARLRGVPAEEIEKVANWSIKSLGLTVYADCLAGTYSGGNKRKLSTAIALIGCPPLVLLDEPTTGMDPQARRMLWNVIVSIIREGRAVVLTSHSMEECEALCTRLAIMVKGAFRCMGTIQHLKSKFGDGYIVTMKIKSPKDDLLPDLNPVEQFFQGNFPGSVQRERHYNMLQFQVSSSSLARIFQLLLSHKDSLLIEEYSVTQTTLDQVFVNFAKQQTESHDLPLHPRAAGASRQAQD
Method in brief: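 Cells transfected with HiBit-tagged human ABCA4 P1380L cDNA were treated for 24 h at 37°C with an eleven-point dilution series (top final 30 μM, 0.3% DMSO).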

[2] = biological target: T2, ABCD2 WT (Homo sapiens, UniProt Q9UBJ2); experiment: D2 correction dose-response assay: ABCD2 WT HiBit protein expression; settings: HEK-293/ABCD2 WT cells, 24 hours treatment, HiBit luminescence; class combines EC50 and Mean MaxAct (fold); read-out: ABCD2 WT EC50, Emax
T2 construct: expressed in transfected cells
T2 sequence (Q9UBJ2 1-740): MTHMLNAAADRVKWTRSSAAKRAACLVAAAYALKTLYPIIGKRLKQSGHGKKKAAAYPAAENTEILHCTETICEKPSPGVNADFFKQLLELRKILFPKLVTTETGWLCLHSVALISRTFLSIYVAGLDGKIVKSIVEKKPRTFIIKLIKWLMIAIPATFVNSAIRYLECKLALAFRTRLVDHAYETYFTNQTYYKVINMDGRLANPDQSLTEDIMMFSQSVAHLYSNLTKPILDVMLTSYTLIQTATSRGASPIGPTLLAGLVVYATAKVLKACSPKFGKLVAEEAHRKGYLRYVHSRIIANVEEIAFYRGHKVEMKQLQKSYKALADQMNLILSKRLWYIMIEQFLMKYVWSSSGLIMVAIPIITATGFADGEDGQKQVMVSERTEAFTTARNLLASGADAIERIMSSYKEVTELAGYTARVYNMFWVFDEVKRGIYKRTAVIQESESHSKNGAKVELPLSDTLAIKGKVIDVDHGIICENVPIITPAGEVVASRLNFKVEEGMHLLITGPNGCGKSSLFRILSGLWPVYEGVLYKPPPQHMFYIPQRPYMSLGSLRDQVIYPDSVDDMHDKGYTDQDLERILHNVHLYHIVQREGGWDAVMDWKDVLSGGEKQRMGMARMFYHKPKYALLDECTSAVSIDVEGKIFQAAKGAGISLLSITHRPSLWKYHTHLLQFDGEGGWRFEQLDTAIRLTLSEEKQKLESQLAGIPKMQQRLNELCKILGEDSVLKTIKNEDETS
Method in brief: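 HEK-293 cells stably expressing HiBit-tagged human ABCD2 WT were treated with 11 doses (3-fold dilutions, top final 30 μM, 0.3% DMSO) for 24 h at 37 °C. Expression was measured by HiBit lytic luminescence after 1 h at 25 °C, giving EC50 and Emax.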

[3] = biological target: T3, ABCB4 WT (Homo sapiens, UniProt P21439); experiment: ABCB4 WT assay: HiBit protein expression; settings: HEK-293 cells stably expressing HiBit-tagged ABCB4 WT; 24 h treatment; top concentration 30 μM; read-out: ABCB4 WT EC50, Emax
T3 construct: expressed in transfected cells
T3 sequence (P21439 whole entry): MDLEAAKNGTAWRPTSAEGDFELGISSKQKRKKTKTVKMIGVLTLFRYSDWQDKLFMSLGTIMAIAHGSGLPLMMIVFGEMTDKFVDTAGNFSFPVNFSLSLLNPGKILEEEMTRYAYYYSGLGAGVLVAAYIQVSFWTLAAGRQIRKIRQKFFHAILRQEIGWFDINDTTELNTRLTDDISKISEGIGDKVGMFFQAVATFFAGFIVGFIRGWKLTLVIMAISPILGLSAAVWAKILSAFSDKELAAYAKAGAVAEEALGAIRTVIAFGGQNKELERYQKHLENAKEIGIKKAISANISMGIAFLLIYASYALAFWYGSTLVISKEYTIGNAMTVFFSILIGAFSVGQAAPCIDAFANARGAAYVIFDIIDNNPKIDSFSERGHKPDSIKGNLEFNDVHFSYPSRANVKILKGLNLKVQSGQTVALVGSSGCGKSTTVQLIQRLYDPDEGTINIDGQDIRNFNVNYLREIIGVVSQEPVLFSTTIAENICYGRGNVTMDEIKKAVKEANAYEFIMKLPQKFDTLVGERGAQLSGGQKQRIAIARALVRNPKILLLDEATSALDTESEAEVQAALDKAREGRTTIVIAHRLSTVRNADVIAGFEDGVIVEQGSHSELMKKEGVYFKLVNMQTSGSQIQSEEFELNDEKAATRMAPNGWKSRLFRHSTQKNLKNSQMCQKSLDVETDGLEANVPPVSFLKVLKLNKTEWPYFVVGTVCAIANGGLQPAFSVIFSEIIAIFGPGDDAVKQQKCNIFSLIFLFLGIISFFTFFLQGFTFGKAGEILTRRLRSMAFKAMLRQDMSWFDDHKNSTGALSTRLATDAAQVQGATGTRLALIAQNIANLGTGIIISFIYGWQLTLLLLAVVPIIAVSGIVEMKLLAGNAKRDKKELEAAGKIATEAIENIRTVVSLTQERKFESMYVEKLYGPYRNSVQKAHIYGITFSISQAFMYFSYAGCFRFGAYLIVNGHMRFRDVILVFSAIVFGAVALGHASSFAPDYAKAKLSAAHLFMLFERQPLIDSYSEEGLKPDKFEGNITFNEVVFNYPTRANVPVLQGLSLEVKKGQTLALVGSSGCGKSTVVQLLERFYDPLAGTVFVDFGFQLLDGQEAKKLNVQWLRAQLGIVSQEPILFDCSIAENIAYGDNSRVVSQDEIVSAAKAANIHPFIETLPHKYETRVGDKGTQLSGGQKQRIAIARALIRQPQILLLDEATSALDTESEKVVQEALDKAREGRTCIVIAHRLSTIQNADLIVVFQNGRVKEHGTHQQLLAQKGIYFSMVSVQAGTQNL
Method in brief: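 HEK-293 cells stably expressing HiBit-tagged human ABCB4 WT, treated 24 h at 37 °C with 11-dose 3-fold dilutions, top final 30 μM in 0.3% DMSO. HiBit lytic reagent luminescence read after 1 h at 25 °C; Emax and EC50 derived.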

Row | Compound | EC50 [1] | EC50 [2] | EC50 [3]
1 | Cc1cc(C)c(Oc2nc(-c3ccn(C)c(=O)c3)ccc2NS(C)(=O)=O)c(C)n1 [Compound I-186] | > 25 µM | > 25 µM | ≥ 25 µM
2 | Cc1cc(C)c(Oc2nc(-c3cc[nH]c(=O)c3)ccc2NS(C)(=O)=O)c(C)n1 [Compound I-187] | > 25 µM | > 25 µM | ≥ 25 µM
3 | COc1cc(-c2ccc(NS(C)(=O)=O)c(Oc3c(C)cc(C)nc3C)n2)ccn1 [Compound I-188] | 1 to 10 µM | 1 to 10 µM | ≥ 25 µM
4 | Cc1cc(C)c(Oc2nc(-c3cncc(N4CCC4)c3)ccc2NS(C)(=O)=O)c(C)n1 [Compound I-190] | < 1 µM | < 1 µM | < 1 µM
5 | Cc1nc(C)c(Oc2nc(-c3cncc(C(F)F)c3)ccc2NS(C)(=O)=O)c(C)n1 [Compound I-191] | < 1 µM | 10 to 25 µM | < 1 µM
6 | Cc1nc(C)c(Oc2nc(-c3cncc(C(F)(F)F)c3)ccc2NS(C)(=O)=O)c(C)n1 [Compound I-192] | 1 to 10 µM | > 25 µM | < 25 µM
7 | Cc1nc(C)c(Oc2nc(-c3cncc(C4CC4)c3)ccc2NS(C)(=O)=O)c(C)n1 [Compound I-193] | < 1 µM | < 1 µM | < 1 µM
8 | Cc1cc(C)c(Oc2nc(-c3cncc(C4CN(C)C4)c3)ccc2NS(C)(=O)=O)c(C)n1 [Compound I-194] | 10 to 25 µM | > 25 µM | ≥ 25 µM
9 | Cc1cc(C)c(Oc2nc(-c3cncc(N4CC(F)(F)C4)c3)ccc2NS(C)(=O)=O)c(C)n1 [Compound I-195] | > 25 µM | > 25 µM | < 1 µM
10 | COC1CN(c2cncc(-c3ccc(NS(C)(=O)=O)c(Oc4c(C)cc(C)nc4C)n3)c2)C1 [Compound I-196] | > 25 µM | < 1 µM | ≥ 25 µM
11 | Cc1cc(C(F)F)nc(C)c1Oc1nc(-c2cncc(C3COC3)c2)ccc1NS(C)(=O)=O [Compound I-197] | 1 to 10 µM | 1 to 10 µM | < 1 µM
12 | Cc1cc(C(F)(F)F)nc(C)c1Oc1nc(-c2cncc(C3COC3)c2)ccc1NS(C)(=O)=O [Compound I-198] | > 25 µM | > 25 µM | < 1 µM
13 | Cc1cc(C(F)F)nc(C)c1Oc1nc(-c2cncc(C#N)c2)ccc1NS(=O)(=O)C1CC1 [Compound I-199] | < 1 µM | 1 to 10 µM | < 1 µM
14 | Cc1nc(C(F)(F)F)nc(C)c1Oc1nc(-c2cncc(C#N)c2)ccc1NS(C)(=O)=O [Compound I-200] | < 1 µM | < 1 µM | < 1 µM
15 | Cc1cc(C)c(Oc2nc(-c3cncc(N4CCOCC4)c3)ccc2NS(C)(=O)=O)c(C)n1 [Compound I-201] | 1 to 10 µM | 1 to 10 µM | ≥ 25 µM
16 | Cc1cc(C(F)F)nc(C)c1Oc1nc(-c2cncc(Cl)c2)ccc1NS(C)(=O)=O [Compound I-202] | < 1 µM | > 25 µM | < 25 µM
17 | Cc1cc(C(F)F)nc(C)c1Oc1nc(-c2ccnc(C#N)c2)ccc1NS(=O)(=O)C1CC1 [Compound I-203] | < 1 µM | < 1 µM | < 25 µM
18 | Cc1cc(C(F)F)nc(C)c1Oc1nc(-c2ccnc(C#N)c2)ccc1NS(C)(=O)=O [Compound I-204] | < 1 µM | < 1 µM | < 1 µM
19 | Cc1nc(C(F)(F)F)nc(C)c1Oc1nc(-c2cncc(Cl)c2)ccc1NS(C)(=O)=O [Compound I-205] | < 1 µM | < 1 µM | ≥ 25 µM
20 | COC(=O)c1cncc(-c2ccc(NS(C)(=O)=O)c(Oc3cc(C)n(C)n3)n2)c1 [Compound I-206] | < 25 µM | > 25 µM | < 25 µM
21 | Cc1cc(C2CCC2)nc(C)c1Oc1nc(-c2cncc(C#N)c2)ccc1NS(C)(=O)=O [Compound I-208] | < 1 µM | > 25 µM | < 1 µM
22 | COc1nc(C)cc(C)c1Oc1nc(-c2cncc(C#N)c2)ccc1NS(C)(=O)=O [Compound I-209] | < 1 µM | < 1 µM | < 1 µM

Row | Compound | EC50 [1] | EC50 [2] | EC50 [3]
23 | Cc1cc(C)c(Oc2nc(-c3ccnc(C#N)c3)ccc2NS(=O)(=O)C2CC2)c(C)n1 [Compound I-211] | 10 to 25 µM | < 1 µM | < 1 µM
24 | C#Cc1cncc(-c2ccc(NS(C)(=O)=O)c(Oc3c(C)cc(C)nc3C)n2)c1 [Compound I-212] | < 1 µM | < 1 µM | < 1 µM
25 | Cc1cc(C2CC2)nc(C)c1Oc1nc(-c2ccnc(C#N)c2)ccc1NS(C)(=O)=O [Compound I-213] | < 1 µM | > 25 µM | < 1 µM
26 | Cc1cc(C)c(Oc2nc(-c3cncc(C4COC4)c3)ccc2NS(C)(=O)=O)c(C)n1 [Compound I-216] | > 25 µM | < 1 µM | < 1 µM
27 | CCS(=O)(=O)Nc1ccc(-c2cncc(C#N)c2)nc1Oc1c(C)cc(C(F)(F)F)nc1C [Compound I-217] | < 1 µM | < 1 µM | < 1 µM
28 | Cc1cc(C(F)(F)F)nc(C)c1Oc1nc(-c2cncc(C#N)c2)ccc1NS(=O)(=O)C1CC1 [Compound I-218] | < 1 µM | 10 to 25 µM | < 1 µM
29 | Cc1cc(C(F)(F)F)nc(C)c1Oc1nc(-c2ccnc(C#N)c2)ccc1NS(C)(=O)=O [Compound I-219] | < 1 µM | < 1 µM | < 1 µM
30 | Cc1cc(C)c(Oc2nc(-c3cncc(C(C)(C)O)c3)ccc2NS(C)(=O)=O)c(C)n1 [Compound I-220] | > 25 µM | > 25 µM | ≥ 25 µM
31 | Cc1cc(C)c(Oc2nc(-c3cncc(C#N)c3)ccc2N2CCCS2(=O)=O)c(C)n1 [Compound I-221] | 1 to 10 µM | > 25 µM | ≥ 25 µM
32 | COc1cc(C)c(Oc2nc(-c3cncc(C#N)c3)ccc2NS(C)(=O)=O)c(C)n1 [Compound I-222] | < 1 µM | < 1 µM | < 1 µM
33 | Cc1nc(C)c(C(F)(F)F)cc1Oc1nc(-c2cncc(C#N)c2)ccc1NS(C)(=O)=O [Compound I-225] | > 25 µM | < 1 µM | < 25 µM
34 | Cc1cc(Oc2nc(-c3cncc(C#N)c3)ccc2NS(C)(=O)=O)c(C)nc1C [Compound I-226] | > 25 µM | < 1 µM | < 1 µM
35 | Cc1cc(C)c(Oc2nc(-c3cncc(CO)c3)ccc2NS(C)(=O)=O)c(C)n1 [Compound I-227] | 1 to 10 µM | 1 to 10 µM | < 25 µM
36 | Cc1cc(C)c(Oc2nc(-c3cncc(C#N)c3)ccc2NS(=O)(=O)C2COC2)c(C)n1 [Compound I-228] | < 1 µM | 1 to 10 µM | < 25 µM
37 | Cc1nc(C)c(C2CC2)cc1Oc1nc(-c2cncc(C#N)c2)ccc1NS(C)(=O)=O [Compound I-229] | 1 to 10 µM | 1 to 10 µM | < 25 µM
38 | Cc1cc(C(F)F)nc(C)c1Oc1nc(-c2cncc(C#N)c2)ccc1NS(C)(=O)=O [Compound I-230] | < 1 µM | < 1 µM | < 1 µM
39 | COCc1cncc(-c2ccc(NS(C)(=O)=O)c(Oc3c(C)cc(C)nc3C)n2)c1 [Compound I-231] | 1 to 10 µM | < 1 µM | 1 to 10 µM
40 | Cc1cc(C)c(Oc2nc(-c3cncc(C4CC4)c3)ccc2NS(C)(=O)=O)c(C)n1 [Compound I-232] | < 25 µM | < 1 µM | < 25 µM
41 | Cc1nc(C)c(Oc2nc(-c3cncc(C#N)c3)ccc2NS(C)(=O)=O)c(C)n1 [Compound I-234] | < 1 µM | < 1 µM | 1 to 10 µM
42 | Cc1cc(C2CC2)nc(C)c1Oc1nc(-c2cncc(C#N)c2)ccc1NS(=O)(=O)C1COC1 [Compound I-235] | < 25 µM | < 1 µM | < 25 µM
43 | Cc1cc(C2CC2)nc(C)c1Oc1nc(-c2cncc(Cl)c2)ccc1NS(=O)(=O)C1COC1 [Compound I-236] | < 25 µM | < 1 µM | < 25 µM
